These results are taken from PMC6016545 (Journal of medicinal chemistry, 2016).

Each structure is given as a SMILES string. Read-outs that look alike come from different tables or passages of the source.

For data set [1], the target named is T1, PSMA (Homo sapiens, UniProt Q04609). The experiment in a line: PSMA inhibition, IC50 determination.
Data set [2] has as its target T1, PSMA. The experiment in a line: Mode of inhibition study. To be noted: reversible, slowly reversible, or irreversible.
The subject of a further data set is PSMA(+) PC3-PIP cells. Conditions: cited from earlier work.

T1 sequence (Q04609 whole entry): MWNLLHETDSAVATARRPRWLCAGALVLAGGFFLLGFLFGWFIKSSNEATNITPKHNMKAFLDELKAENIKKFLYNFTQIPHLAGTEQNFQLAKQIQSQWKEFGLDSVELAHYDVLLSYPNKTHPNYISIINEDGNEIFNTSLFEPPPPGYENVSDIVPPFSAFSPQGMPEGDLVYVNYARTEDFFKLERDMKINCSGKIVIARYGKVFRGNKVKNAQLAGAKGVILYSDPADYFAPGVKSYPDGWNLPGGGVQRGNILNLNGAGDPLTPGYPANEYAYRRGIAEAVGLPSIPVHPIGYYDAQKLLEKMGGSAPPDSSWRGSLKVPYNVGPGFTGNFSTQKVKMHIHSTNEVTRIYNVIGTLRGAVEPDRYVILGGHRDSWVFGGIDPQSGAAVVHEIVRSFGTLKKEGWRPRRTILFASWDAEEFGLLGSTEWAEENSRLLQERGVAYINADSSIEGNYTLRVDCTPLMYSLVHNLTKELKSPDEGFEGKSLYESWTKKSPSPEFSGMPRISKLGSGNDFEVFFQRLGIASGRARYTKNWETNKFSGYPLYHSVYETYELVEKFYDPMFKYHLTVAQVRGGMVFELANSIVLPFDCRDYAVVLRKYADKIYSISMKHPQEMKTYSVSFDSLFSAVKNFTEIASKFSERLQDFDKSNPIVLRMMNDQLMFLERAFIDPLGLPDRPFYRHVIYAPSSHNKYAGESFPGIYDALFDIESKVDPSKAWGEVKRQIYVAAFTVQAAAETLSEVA

For `O=C(O)CCC(NP(=O)(O)OCCC[C@@H](NC(=O)CC[C@H](NC(=O)CCCCCNC(=O)CCCCCNC(=O)c1ccc(F)cc1)C(=O)O)C(=O)O)C(=O)O` (stereo partly drawn) [compound 6, 2-(((S)-(((22R)-17,22-Dicarboxy-1-(4-fluoro-phenyl)-1,8,15,20-tetraoxo-2,9,16,21-tetraazapentacosan-25-yl)oxy)(hydroxy)phosphoryl)amino)pentanedioic Acid], the IC50 (usually the concentration that gives 50% inhibition) against PSMA [1] stood at 900 pM. Besides, at PSMA [2], the “mode of binding to PSMA” value is given as “irreversible”.

As for `O=C(O)CC[C@H](NC(=O)N[C@@H](CSCc1ccc([18F])cc1)C(=O)O)C(=O)O` [[^18F]DCFBC, N[N-[(S)-1,3-dicarboxypropyl]carbamoyl]-4-[^18F] fluorobenzyl-L-cysteine], in the data set with PSMA(+) PC3-PIP cells (PSMA(+) PC3-PIP cells), the tumor uptake is listed as 4.7% and the tumor/blood ratio is given as 13.

Turning to `O=C(O)CCC(NC(=O)NC(CCCCNC(=O)c1ccc([18F])nc1)C(=O)O)C(=O)O` (stereo not shown) [[^18F]DCFPyL, 2-(3-(1-carboxy-5-[(6-[^18F]-fluoropyridine-3-carbonyl)amino]pentyl)ureido)pentanedioic acid], in the data set on PSMA(+) PC3-PIP cells (2 h), the liver uptake is on record as 2.14% and the renal uptake is given as 15.7%. Moreover, the tumor uptake in the data set on PSMA(+) PC3-PIP cells (2 h in PC3-PIP cells) is 39.4%.

Compound `O=C(O)CC[C@H](NP(=O)(O)OCCC[C@H](NC(=O)CC[C@H](NC(=O)CCCCCNC(=O)c1ccc(F)cc1)C(=O)O)C(=O)O)C(=O)O` [compound 5] returned an IC50 against PSMA [1] of 400 pM. Moreover, the “mode of binding to PSMA” value on PSMA [2] is “irreversible”.

`NCCCCCC(=O)NCCCCCC(=O)N[C@@H](CCC(=O)N[C@H](CCCOP(=O)(O)NC(CCC(=O)O)C(=O)O)C(=O)O)C(=O)O` (stereo partly drawn) [compound 3, 2-(((S)-((4R)-4-(4-(6-(6-Aminohexanamido)-hexanamido)-4-carboxybutanamido)-4-carboxybutoxy)-(hydroxy)phosphoryl)amino)pentanedioic Acid] had a 50% inhibitory concentration (IC50) against PSMA [1] of 7800 pM.
